According to patent US11739098B2 (BRISTOL-MYERS SQUIBB COMPANY, priority 2017, dated 2023):

Experiments:
Type in all cases: cell-based
human TLR7 = target: T1, human TLR7 (Homo sapiens, UniProt Q9NYK1); experiment: TLR7 inhibition reporter assay (HEK-Blue cells, SEAP reporter, gardiquimod stimulation); conditions: HEK-Blue cells overexpressing human TLR7, SEAP reporter, gardiquimod 7.5 μM
T1 construct: host or cells: HEK-Blue cells (HEK293-derived reporter line)
T1 sequence (Q9NYK1 27-1049): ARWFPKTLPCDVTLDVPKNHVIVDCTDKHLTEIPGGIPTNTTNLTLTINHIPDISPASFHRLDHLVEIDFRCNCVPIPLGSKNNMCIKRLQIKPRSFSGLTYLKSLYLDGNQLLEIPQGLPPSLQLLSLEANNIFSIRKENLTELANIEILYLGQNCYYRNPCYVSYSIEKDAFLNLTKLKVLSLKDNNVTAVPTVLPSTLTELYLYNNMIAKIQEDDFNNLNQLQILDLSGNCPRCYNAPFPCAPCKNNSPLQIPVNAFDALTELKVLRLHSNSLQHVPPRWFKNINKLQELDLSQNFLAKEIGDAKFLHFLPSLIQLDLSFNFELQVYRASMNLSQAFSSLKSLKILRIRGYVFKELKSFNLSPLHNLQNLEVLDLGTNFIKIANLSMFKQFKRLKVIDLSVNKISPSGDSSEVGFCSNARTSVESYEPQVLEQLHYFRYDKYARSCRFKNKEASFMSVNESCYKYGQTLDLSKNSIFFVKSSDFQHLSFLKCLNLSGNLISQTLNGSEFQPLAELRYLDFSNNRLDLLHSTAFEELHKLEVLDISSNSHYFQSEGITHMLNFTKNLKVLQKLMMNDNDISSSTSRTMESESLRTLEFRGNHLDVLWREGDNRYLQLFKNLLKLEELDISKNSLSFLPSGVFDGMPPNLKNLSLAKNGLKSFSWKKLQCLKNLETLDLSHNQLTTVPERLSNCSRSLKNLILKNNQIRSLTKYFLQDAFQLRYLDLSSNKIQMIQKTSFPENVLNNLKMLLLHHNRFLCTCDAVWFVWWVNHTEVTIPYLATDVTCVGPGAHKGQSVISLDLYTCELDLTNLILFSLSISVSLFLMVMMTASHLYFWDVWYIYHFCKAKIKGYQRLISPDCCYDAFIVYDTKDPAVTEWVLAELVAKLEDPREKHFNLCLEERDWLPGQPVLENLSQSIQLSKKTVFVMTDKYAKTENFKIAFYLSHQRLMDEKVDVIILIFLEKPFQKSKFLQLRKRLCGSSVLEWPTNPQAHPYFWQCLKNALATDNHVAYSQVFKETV
Method in brief: (§1)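 HEK-Blue cells overexpressing the receptor, with NF-κB/AP-1-driven SEAP, were pre-treated 30 min at room temperature with compound (0.05 nM–50 μM), then stimulated with gardiquimod 7.5 μM (TLR7), R848 15.9 μM (TLR8) or ODN2006 5 nM (TLR9). SEAP was read after 22 h at 37 °C as percent inhibition.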

human TLR9 = target: T2, human TLR9 (Homo sapiens, UniProt Q9NR96); experiment: TLR9 inhibition reporter assay (HEK-Blue cells, SEAP reporter, ODN2006 stimulation); conditions: HEK-Blue cells overexpressing human TLR9, SEAP reporter, ODN2006 5 nM
T2 construct: host or cells: HEK-Blue cells (HEK293-derived reporter line)
T2 sequence (Q9NR96 26-1032): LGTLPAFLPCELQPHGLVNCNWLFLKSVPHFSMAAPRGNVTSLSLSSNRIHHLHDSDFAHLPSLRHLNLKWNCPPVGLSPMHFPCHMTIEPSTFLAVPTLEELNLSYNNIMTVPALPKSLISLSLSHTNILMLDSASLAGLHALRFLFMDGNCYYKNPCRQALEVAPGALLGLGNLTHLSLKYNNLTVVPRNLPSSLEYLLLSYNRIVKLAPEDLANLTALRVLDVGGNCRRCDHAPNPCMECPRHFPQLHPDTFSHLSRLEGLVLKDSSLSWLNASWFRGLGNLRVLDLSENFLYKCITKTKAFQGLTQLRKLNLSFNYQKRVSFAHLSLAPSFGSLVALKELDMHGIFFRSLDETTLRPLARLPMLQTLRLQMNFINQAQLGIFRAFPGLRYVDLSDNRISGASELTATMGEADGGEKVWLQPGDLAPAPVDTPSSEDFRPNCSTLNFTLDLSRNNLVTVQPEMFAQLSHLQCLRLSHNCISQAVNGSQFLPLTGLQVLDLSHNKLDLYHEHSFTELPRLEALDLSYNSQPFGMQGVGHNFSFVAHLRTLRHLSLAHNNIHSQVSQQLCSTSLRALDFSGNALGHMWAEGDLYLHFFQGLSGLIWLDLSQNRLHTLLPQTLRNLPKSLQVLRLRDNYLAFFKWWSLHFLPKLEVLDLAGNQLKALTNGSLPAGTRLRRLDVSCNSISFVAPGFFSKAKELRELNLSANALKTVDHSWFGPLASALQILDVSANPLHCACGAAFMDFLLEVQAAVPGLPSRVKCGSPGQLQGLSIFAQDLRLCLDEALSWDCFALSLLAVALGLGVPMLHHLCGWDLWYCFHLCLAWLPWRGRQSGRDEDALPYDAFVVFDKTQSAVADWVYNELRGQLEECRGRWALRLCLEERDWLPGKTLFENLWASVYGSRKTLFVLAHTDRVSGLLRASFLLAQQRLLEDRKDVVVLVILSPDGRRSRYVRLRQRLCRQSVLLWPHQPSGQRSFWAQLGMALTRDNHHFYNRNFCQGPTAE
Method in brief: as §1

human TLR8 = target: T3, human TLR8 (Homo sapiens, UniProt Q9NR97); experiment: TLR8 inhibition reporter assay (HEK-Blue cells, SEAP reporter, R848 stimulation); conditions: HEK-Blue cells overexpressing human TLR8, SEAP reporter, R848 15.9 μM
T3 construct: host or cells: HEK-Blue cells (HEK293-derived reporter line)
T3 sequence (Q9NR97 27-1041): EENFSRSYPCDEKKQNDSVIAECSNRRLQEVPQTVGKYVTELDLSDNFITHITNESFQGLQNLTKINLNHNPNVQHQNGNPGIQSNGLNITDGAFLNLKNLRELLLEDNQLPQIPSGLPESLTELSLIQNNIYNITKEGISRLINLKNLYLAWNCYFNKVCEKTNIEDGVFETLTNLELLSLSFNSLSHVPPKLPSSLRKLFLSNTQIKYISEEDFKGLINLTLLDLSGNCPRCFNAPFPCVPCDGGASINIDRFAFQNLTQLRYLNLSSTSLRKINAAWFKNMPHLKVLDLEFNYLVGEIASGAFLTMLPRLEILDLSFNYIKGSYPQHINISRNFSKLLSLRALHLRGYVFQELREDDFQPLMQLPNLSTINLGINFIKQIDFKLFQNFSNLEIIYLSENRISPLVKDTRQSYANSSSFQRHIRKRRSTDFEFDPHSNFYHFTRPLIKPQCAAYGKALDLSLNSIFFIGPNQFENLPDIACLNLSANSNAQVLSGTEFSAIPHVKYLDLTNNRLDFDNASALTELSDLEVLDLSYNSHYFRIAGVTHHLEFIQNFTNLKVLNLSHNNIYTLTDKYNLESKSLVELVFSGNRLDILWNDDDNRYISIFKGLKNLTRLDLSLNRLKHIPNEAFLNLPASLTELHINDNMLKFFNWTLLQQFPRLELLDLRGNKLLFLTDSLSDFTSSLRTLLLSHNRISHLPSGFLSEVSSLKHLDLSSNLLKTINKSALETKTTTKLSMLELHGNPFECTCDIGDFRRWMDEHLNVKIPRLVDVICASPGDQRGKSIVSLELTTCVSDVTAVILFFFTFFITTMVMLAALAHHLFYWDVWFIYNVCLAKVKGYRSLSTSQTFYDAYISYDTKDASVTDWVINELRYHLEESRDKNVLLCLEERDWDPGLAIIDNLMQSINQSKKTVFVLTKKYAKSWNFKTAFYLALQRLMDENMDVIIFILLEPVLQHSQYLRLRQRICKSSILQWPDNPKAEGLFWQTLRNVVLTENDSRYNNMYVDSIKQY
Method in brief: as §1

| IC50 (human TLR7) [nM] | IC50 (human TLR9) [nM] | IC50 (human TLR8) [nM] | Structure (SMILES) |
| --- | --- | --- | --- |
| < 100 | 1000 to 50000 | < 100 | CC(C)c1c(-c2ccnc3[nH]ncc23)[nH]c2ccc(C3CCN(C4CCOCC4)CC3)cc12 [Example 682, 4-(3-isopropyl-5-(1-(tetrahydro-2H-pyran-4-yl)piperidin-4-yl)-1H-indol-2-yl)-1H-pyrazolo[3,4-b]pyridine] |
| < 100 | > 50000 | < 100 | CC(=O)N1CCN(CC(=O)N2CCC(c3ccc4[nH]c(-c5ccnc6[nH]ncc56)c(C(C)C)c4c3)CC2)CC1 [Example 574, 2-(4-acetylpiperazin-1-yl)-1-(4-(3-isopropyl-2-(1H-pyrazolo[3,4-b]pyridin-4-yl)-1H-indol-5-yl)piperidin-1-yl)ethan-1-one] |
| < 100 | 1000 to 50000 | 100 to 1000 | CC(C)c1c(-c2ccc3nccn3c2)[nH]c2ccc(C3CCN(C(=O)[C@H]4CCCNC4)CC3)cc12 [Example 640, (S)-(4-(2-(imidazo[1,2-a]pyridin-6-yl)-3-isopropyl-1H-indol-5-yl)piperidin-1-yl)(piperidin-3-yl)methanone] |
| < 100 | 1000 to 50000 | < 100 | COc1cc(-c2[nH]c3ccc(C4CCN(C5COC5)CC4)cc3c2C(C)C)cn2ccnc12 [Example 722, 6-(3-isopropyl-5-(1-(oxetan-3-yl)piperidin-4-yl)-1H-indol-2-yl)-8-methoxyimidazo[1,2-a]pyridine] |
| < 100 | 1000 to 50000 | < 100 | CC(C)c1c(-c2cnc3c(cnn3C)c2)[nH]c2ccc(C3CCN(CC(C)(C)O)CC3)cc12 [Example 764, 1-(4-(3-isopropyl-2-(1-methyl-1H-pyrazolo[3,4-b]pyridin-5-yl)-1H-indol-5-yl)piperidin-1-yl)-2-methylpropan-2-ol] |
| 100 to 1000 | > 50000 | 100 to 1000 | CC(C)c1c(-c2ccnc3[nH]ncc23)[nH]c2ccc(C3CCN(C(=O)CN4CCNC(=O)C4)CC3)cc12 [Example 587, 4-(2-(4-(3-isopropyl-2-(1H-pyrazolo[3,4-b]pyridin-4-yl)-1H-indol-5-yl)piperidin-1-yl)-2-oxoethyl) piperazin-2-one] |
| < 100 | 1000 to 50000 | < 100 | Cc1cc(-c2[nH]c3ccc(C4CCN(C(=O)CN5C[C@H]6CC[C@@H](C5)O6)CC4)cc3c2C(C)C)cn2nnnc12 [Example 484, 2-((1R,5S)-8-oxa-3-azabicyclo[3.2.1]octan-3-yl)-1-(4-(3-isopropyl-2-(8-methyltetrazolo[1,5-a]pyridin-6-yl)-1H-indol-5-yl)piperidin-1-yl)ethan-1-one] |

Second part, the compound before the results:

| Structure (SMILES) | IC50 (human TLR7) [nM] | IC50 (human TLR9) [nM] | IC50 (human TLR8) [nM] |
| --- | --- | --- | --- |
| CCc1c(-c2c[nH]c3ncncc23)[nH]c2ccc(C3CCNCC3)cc12 [Example 241, 5-(3-ethyl-5-(piperidin-4-yl)-1H-indol-2-yl)-7H-pyrrolo[2,3-d]pyrimidine] | < 100 | 1000 to 50000 | < 100 |
| CCc1c(-c2c(C)cnc3[nH]ccc23)[nH]c2ccc(C3CCNCC3)cc12 [Example 246, 4-(3-ethyl-5-(piperidin-4-yl)-1H-indol-2-yl)-5-methyl-1H-pyrrolo[2,3-b]pyridine] | < 100 | 100 to 1000 | < 100 |
| Cc1ccnc2[nH]cc(-c3[nH]c4ccc(C5CCN(C(=O)CN(C)C)CC5)cc4c3C(C)C)c12 [Example 458, 2-(dimethylamino)-1-(4-(3-isopropyl-2-(4-methyl-1H-pyrrolo[2,3-b]pyridin-3-yl)-1H-indol-5-yl)piperidin-1-yl)ethan-1-one] | < 100 | 1000 to 50000 | 100 to 1000 |
| Cc1cc(-c2[nH]c3ccc(C4CCNCC4)cc3c2C(C)C)cc2cnnn12 [Example 78, 5-(3-isopropyl-5-(piperidin-4-yl)-1H-indol-2-yl)-7-methyl-[1,2,3]triazolo[1,5-a]pyridine] | < 100 | 1000 to 50000 | < 100 |
| Cc1c(-c2ccnc3[nH]cc(O)c23)[nH]c2ccc(C3CCNCC3)cc12 [Example 212, 4-(3-methyl-5-(piperidin-4-yl)-1H-indol-2-yl)-1H-pyrrolo[2,3-b]pyridin-3-ol] | 1000 to 50000 | 1000 to 50000 | 1000 to 50000 |
| Cc1cc(-c2[nH]c3ccc(C4CCNCC4)cc3c2C(C)C)cc2cn(C)nc12 [Example 138, 5-(3-isopropyl-5-(piperidin-4-yl)-1H-indol-2-yl)-2,7-dimethyl-2H-indazole] | < 100 | 1000 to 50000 | < 100 |
| Cc1cn2cc(-c3[nH]c4ccc(C5CCN(CC(=O)N(C)C)CC5)cc4c3CC(F)F)ccc2n1 [Example 416, 2-(4-(3-(2,2-difluoroethyl)-2-(2-methylimidazo[1,2-a]pyridin-6-yl)-1H-indol-5-yl)piperidin-1-yl)-N,N-dimethylacetamide] | < 100 | < 100 | > 3130 |
| CC(C)c1c(-c2ccc3nnnn3c2)[nH]c2ccc(C3CCNCC3)cc12 [Example 80, 6-(3-isopropyl-5-(piperidin-4-yl)-1H-indol-2-yl)tetrazolo[1,5-a]pyridine] | < 100 | 1000 to 50000 | 100 to 1000 |
